Where “and” joins values, the source holds several entries; their conditions need not be identical. Equal entries are not always repeated.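 1) Cells in 96-well plates. 2) Compound, 48 h, 5 concentrations. 3) Linear interpolation between surrounding doses. 4) Unreached endpoint = highest concentration. Abbreviation: GI50, concentration required for 50% inhibition of growth. TGI marks complete inhibition of growth.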
What was measured:
Assay in all cases: inhibition of tumour cell growth, NCI panel, 48 h
TK-10 renal = system: TK-10 renal
HL-60(TB) leukemia = system: HL-60(TB) leukemia
HCC-2998 colon = system: HCC-2998 colon
NCI-H226 lung = system: NCI-H226 lung
HS 578T breast = system: HS 578T breast
SK-MEL-5 melanoma = system: SK-MEL-5 melanoma
CAKI-1 renal = system: CAKI-1 renal
PC-3 prostate = system: PC-3 prostate
K-562 leukemia = system: K-562 leukemia
T-47D breast = system: T-47D breast

SMILES	TGI (TK-10 renal)	TGI (HL-60(TB) leukemia)	TGI (HCC-2998 colon)	TGI (NCI-H226 lung)	TGI (HS 578T breast)	TGI (SK-MEL-5 melanoma)	TGI (CAKI-1 renal)	TGI (PC-3 prostate)	TGI (K-562 leukemia)	TGI (T-47D breast)	GI50 (TK-10 renal)	GI50 (HL-60(TB) leukemia)	GI50 (NCI-H226 lung)	GI50 (HS 578T breast)	GI50 (SK-MEL-5 melanoma)	GI50 (CAKI-1 renal)
CC1(C)NC2C(=O)c3c([nH]c4ccccc34)[C@]3(C)CCC1CC23 (stereo not given in full)	> 100 µM	> 100 µM	> 100 µM	> 100 µM	> 100 µM	> 100 µM	> 100 µM	> 100 µM	> 100 µM	90.8 µM						
COc1ccc2ccccc2c1/C=C/C(=O)c1ccccc1	7.45 µM	4.33 µM	3.07 µM	11.1 µM	38.7 µM	16.1 µM	15 µM	13.9 µM	6.28 µM	8.32 µM						
CC1OC(OC2C(O[C@H]3CC[C@@]4(C)C(=CC[C@H]5[C@@H]6C[C@@H]7O[C@]8(CC[C@@H](CO)CO8)[C@@H](C)[C@@H]7[C@@]6(C)CC[C@@H]54)C3)OC(CO)C(O)C2OC2OC(CO)C(O)C(O)C2O)C(O)C(O)C1O (stereo not given in full)	3.08 µM	2.8 µM	2.97 µM	3.79 µM	8.06 µM	3.11 µM	3.55 µM	3.33 µM	3.17 µM	4.02 µM						
O=c1cc(-c2ccc(F)cc2)[nH]c2ncc(Cl)cc12	> 100 µM	15.3 µM	> 100 µM	> 56 µM	85 µM	> 100 µM	> 100 µM	> 100 µM	32.6 µM	> 100 µM						
Nc1cc2[nH]c(=O)c(=O)[nH]c2cc1N	> 100 µM	> 100 µM	> 100 µM	> 100 µM	> 100 µM	> 100 µM	> 100 µM	> 100 µM	> 100 µM	> 100 µM						
Oc1ccc(-c2nc(-c3cccnc3)c(-c3ccc(Cl)cc3)[nH]2)cc1	26.3 µM	36.7 µM	33.1 µM	33.3 µM	56 µM	27.2 µM	43.3 µM	19.5 µM	> 100 µM	28.6 µM						
N=C(N)c1ccc(C(NC(=O)CNS(=O)(=O)c2ccc3ccccc3c2)P(=O)(Oc2ccccc2)Oc2ccccc2)cc1 (stereo not given)		> 100 µM	> 100 µM	38.8 µM	> 100 µM	> 100 µM	> 100 µM	> 100 µM	> 100 µM	> 100 µM						
CC1=NNC(N)=N/C1=C\C(Sc1ccc(Cl)cc1)c1ccc([N+](=O)[O-])cc1 (stereo not given)	> 100 µM	76.4 µM	> 100 µM	68.1 µM	> 100 µM	> 100 µM	> 100 µM	> 100 µM	> 100 µM	> 100 µM						
Cc1nc(-c2cc3cc([N+](=O)[O-])ccc3oc2=O)cs1	> 100 µM	> 100 µM	> 100 µM	> 100 µM	> 100 µM	> 100 µM	> 100 µM	> 100 µM	> 100 µM	> 100 µM						
CC(C)[Si](OC1=C(C(=O)N(C)c2cccc(Cl)c2)CCCC1)(C(C)C)C(C)C	30.4 µM	26.3 µM	34 µM	37.7 µM	30.3 µM	34.2 µM	25.9 µM	24 µM	71.3 µM	18.1 µM						
O=C(N/N=C\c1cccc2c([N+](=O)[O-])cccc12)Nc1ccccc1	27.3 µM	72.6 µM	32 µM	31.2 µM	33.5 µM	33.5 µM	25.5 µM	32.7 µM	43.5 µM	20.4 µM						
CSc1ccc2c(cc1=O)[C@@H](NC(=O)c1ccc(N)cc1)CCc1cc(O)c(O)c(O)c1-2	> 100 µM	> 75 µM	32.9 µM and 37.3 µM	40.1 µM and 5.49 µM	> 75 µM and 43.6 µM	45.5 µM and 28.7 µM	> 75 µM and 53.2 µM	> 100 µM	> 100 µM	> 100 µM	24.2 µM and > 100 µM	> 75 µM	16.6 µM and 1.75 µM	24.3 µM and 10.2 µM	21.1 µM and 6.63 µM	> 75 µM and 25.8 µM
COC[C@@H](C[C@H]1O[C@@](O)([C@H](O)[C@@H]2C[C@H](OC)[C@@H](O)CC/C=C(C)/C=C/[C@@H](O[C@@H]3O[C@@H](C)[C@H](OC)[C@@H](O)[C@@H]3O)[C@H](C)/C=C(C)/C=C(C)/C=C(\C)C(=O)O2)[C@H](C)[C@@H](O)[C@H]1C)O[C@H]1C[C@](C)(O)[C@@H](O[C@H]2C[C@@H](OC)[C@H](O)[C@@H](C)O2)C(C)O1 (stereo not given in full)	> 100 µM	> 100 µM	> 100 µM	> 100 µM	> 100 µM	> 100 µM	> 100 µM	> 100 µM	> 46.7 µM	> 100 µM						
Cc1ccc([N+](=O)[O-])cc1S(=O)(=O)Nc1ccc(C2=NNC(c3ccccc3)C2)cc1 (stereo not given)	> 100 µM	54.2 µM	44.9 µM	> 100 µM	> 100 µM	30.9 µM	53.6 µM	> 100 µM	85 µM	28.5 µM						

From PubChem BioAssay (NCI)
